Reference: patent US5948749A, “Pharmaceutical preparations for intranasal administration” (Fuji Yakuhin Company, Limited, priority 1996, dated 1999)

System: ophthalmic mucous membrane
Details: rabbit, in vivo
Experimental: The testing method of the present test was based on the guidelines given by OECD. That means, 3 rabbits were used in this study, and a test drug was administered once into one eye of a rabbit in the conjunctival sac, and the other eye was used as control. […] Eyes were washed using lukewarm water of about 35° C. at the observation 24 hours after the administration. Scores of the conjunctival reaction obtained by administration of each test drug were calculated according to the assessment criteria of Draize method. The maximum of total score at each observation time was obtained for each test drug and for each test animal, and the average was calculated, then irritation evaluation in 8 stages (FIG. 9) was carried out according to the Kay and Calandra ophthalmic mucous membrane irritation classification method.

sodium polystyrene sulphonate
Kay and Calandra ophthalmic mucous membrane irritation classification (8 levels): Moderately irritating | average value (score) of the maximum Draize score: 29.0
